According to publication PMC6108835, “Target-Based Discovery of an Inhibitor of the Regulatory Phosphatase PPP1R15B” (Cell, 2018):

What was measured:
brains of R15a −/− mice = assay: Monitoring translation rates in vivo, brains of R15a −/− mice; set-up: species or system mouse; details: 40 mg/kg
Experimental: 3 months old treatment- and test-naive C57BL/6J males were treated as indicated. 30 min before the end of treatment mice were injected intraperitoneally with 0.75 mCi/kg radioactive label – 75% ^35S-methionine + 25% ^35S-cystine (Hartmann Analytic). At the end of treatment mice were culled by cervical dislocation, brains were extracted, fresh-frozen in liquid nitrogen and kept at −80°C until use. Tissue was homogenized and lysed in Laemmli Buffer (1 mL for 0.5 mg tissue). Lysates were boiled at 95°C for 5 min, sonicated and resolved on Bolt SDS-PAGE 4%–12% Bis-Tris gels (ThermoFisher Scientific). Gels were then stained with InstantBlue (Expedeon) and after the gels had been imaged they were transferred to a 20% ethanol, 7% acetic acid, 4% glycerol solution for 10 min. This was to prevent the gels from cracking while drying. The gels were transferred to filter paper and dried using a gel dryer. The gels were then exposed to a Storage Phosphor Screen (GE Healthcare) and analyzed by phosphorimaging using a Typhoon Imager Scanner (GE Healthcare).

R15B = target: T1, R15B (Homo sapiens, UniProt Q5SWA1); assay: Limited trypsin digestion of R15B; details: R15 3 μM, compound 100 μM, trypsin 5 nM, 5 min, 22°C
T1 construct: cDNAs encoding amino acids 325-636 of R15A and 340-698 of R15B were cloned into pMAL-c5x; made in house; host or cells: E. coli BL21-Gold (DE3) pLysS
Experimental: Reactions were initiated by addition of 5 nM of trypsin from bovine pancreas (Sigma-Aldrich), made up in PBS, and allowed to proceed for 5 min at 22°C, with shaking at 350 rpm. […] Proteins were visualized by staining with InstantBlue Protein Stain (Expedeon).

HeLa cells = assay: Monitoring cell viability (CellTox Green, IncuCyte); assay type: cell-based
Experimental: HeLa cells (40,000 cells/mL) were plated in 96-well plates (0.1 mL/well). The following day the cells were treated with different concentrations of Raphin1, in triplicate, as indicated and incubated at 37°C for 48 hr. To monitor cell death 1:2,000 dilution of the CellTox Green Dye (Promega) was added to the medium. The growth of the cells was monitored over time and pictures taken every 2 hr (two per well) with the IncuCyte ZOOM system (Essen BioScience). The default software parameters for a 96-well plate (Corning) with a 10x objective were used for imaging and the images were analyzed by the IncuCyte ZOOM software (Essen BioScience). The software was used to calculate the confluency from the two non-overlapping images of each well at each time point. The phase confluency refers to the percentage of the image area that is occupied by cells. The green confluency refers to the percentage of the image area that fluoresces green. The CellTox Green Dye (Promega) preferentially stains dead cells’ DNA, but is excluded from viable cells. To assess the effect of Raphin1 on cell viability, the percentage of dead cells was calculated as follows: %ofdeadcells=Greenconfluency(%)atXhours/Phaseconfluency(%)atXhours×100

[1] = target: T2, R15B-PP1c holophosphatase (R15B^340-698-PP1c) (Homo sapiens, UniProt Q5SWA1); assay: Holophosphatase SPR, compounds binding to reconstituted R15B-PP1c; details: holophosphatase reconstituted on SA chip; 20°C; mean ± SD; read-out: KD, steady-state affinity for R15B-PP1c
T2 construct: cDNAs encoding amino acids 325-636 of R15A and 340-698 of R15B were cloned into pMAL-c5x; made in house; host or cells: R15B: E. coli BL21-Gold (DE3) pLysS; bio-PP1c: Sf9 insect cells (baculovirus)
Experimental: (§1) Small molecules were stored as 50 mM stock solutions in 100% DMSO. […] If necessary the concentration range was adjusted to accurately determine the KD depending on the initial results. […] This was followed by 1 min stabilization period, to wash off any unspecific binding. […] After each dilution series, the surface was regenerated using 3 M NaCl for 90 s. […] In order to be able to correct for small variations in DMSO concentration between samples, eight solvent samples ranging from 0.06 to 8% DMSO were injected every 50th cycle. The flow cell temperature was 20°C.

[2] = tested on: R15B-PP1c holophosphatase (R15B^340-698-PP1c); assay: as above; set-up: species or system human; details: ratio of SPR KD values
Experimental: as §1

[3] = Monitoring Raphin1 stability in cell culture media; assay type: physicochemical; details: 10 μM, 37°C, 0-10 hr, mass spectrometry
Experimental: Raphin1, 10 μM (from a 10 mM DMSO stock), was added to 20 mL of pre-warmed water or cell culture media, in tightly-sealed 20 mL glass vials to reduce evaporation and incubated in an incubator at 37°C. 50 μL samples were taken at 0, 1, 2, 5, 7.5 and 10 hr and added to an Eppendorf tube containing 200 μL of chilled acetonitrile and internal standards. The samples were stored in a −20°C freezer until the end of the study. The samples were then analyzed by mass spectrometry using a TQ-S micro Triple Quadrupole from Waters and compared against a standard curve prepared in the same manner as the samples.

T2 sequence (Q5SWA1 340-698): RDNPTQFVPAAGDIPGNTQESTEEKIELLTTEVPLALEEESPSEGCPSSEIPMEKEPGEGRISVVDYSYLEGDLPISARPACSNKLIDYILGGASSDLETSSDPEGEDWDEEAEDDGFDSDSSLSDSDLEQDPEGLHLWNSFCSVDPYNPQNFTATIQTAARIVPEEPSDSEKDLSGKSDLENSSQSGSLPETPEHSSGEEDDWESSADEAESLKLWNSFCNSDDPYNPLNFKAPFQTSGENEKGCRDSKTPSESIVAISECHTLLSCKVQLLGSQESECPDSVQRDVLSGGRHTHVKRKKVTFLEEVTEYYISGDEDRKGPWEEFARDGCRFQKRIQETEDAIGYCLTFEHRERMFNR
T2 sequence (P36873 1-322 partner limits assumed): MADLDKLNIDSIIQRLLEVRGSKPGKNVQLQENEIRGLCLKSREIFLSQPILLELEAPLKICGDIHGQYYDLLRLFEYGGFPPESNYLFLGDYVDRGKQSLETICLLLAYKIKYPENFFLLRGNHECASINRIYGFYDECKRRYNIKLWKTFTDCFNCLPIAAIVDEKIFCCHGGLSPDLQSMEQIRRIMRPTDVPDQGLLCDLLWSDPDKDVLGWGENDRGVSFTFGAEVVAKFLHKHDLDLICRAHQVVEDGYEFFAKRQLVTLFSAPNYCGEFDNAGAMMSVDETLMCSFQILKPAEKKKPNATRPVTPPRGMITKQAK
T1 sequence (Q5SWA1 340-698): as the sequence (Q5SWA1 340-698) above

[H]/N=C(\N)NN=Cc1cccc(Cl)c1Cl [Raphin1, (E)-2-(2,3-dichlorobenzylidene)hydrazine-1-carboximidamide]
Translation recovery in the brains (in words) (brains of R15a −/− mice): recovery was reduced
Protease sensitivity of R15B (limited proteolysis, conformational change) (R15B): protected
Toxicity to cells (% of dead cells) (HeLa cells; 20 μM): toxic
Toxicity to cells (% of dead cells) (HeLa cells; concentration corresponding to brain level after 2 mg/kg (∼1.5 μM), continuously applied for 48 hr): not toxic
Kd [1]: 33 ± 20 nM
Selectivity in binding R15B-PP1c over R15A-PP1c [2]: ~30 fold
Stability in cell culture media over time [3]: stable
